Some test systems named below: BT-549 breast; HOP-62 NSCLC; K-562 leukemia; M14 melanoma; NCI/ADR-RES ovarian; OVCAR-5 ovarian; SF-539 CNS; SN12C renal; SNB-19 CNS; UACC-62 melanoma.
Common to all, as to test: DTP human tumour cell line panel, 48 h

Values joined by “and” are separate entries in the source; they are usually repeats but may differ in a detail not shown here. Identical values can stand only once.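 In this assay, cells in 96-well plates receive the compound at five concentrations for 48 hours. Endpoints are linearly interpolated between the surrounding concentrations. Abbreviation: GI50, concentration required for 50% inhibition of growth. The concentration for full growth arrest is given as TGI.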

One may read the TGI as the concentration at which net growth stops. With `COc1ccc(-c2cc(=O)c3ccc(C)nc3[nH]2)cc1`, the TGI in the assay on BT-549 breast, with HOP-62 NSCLC, with K-562 leukemia, with M14 melanoma, in the assay on NCI/ADR-RES ovarian and in the assay on OVCAR-5 ovarian was greater than 100 µM throughout. Moreover, the TGI in the assay with SF-539 CNS, in the assay with SN12C renal, in the assay on SNB-19 CNS and in the assay on UACC-62 melanoma was greater than 100 µM throughout.
As to `CC(=O)O[C@H]1CC[C@@]2(C)C(=CC[C@H]3[C@@H]4CC[C@H](c5cc(C(F)(F)F)n(C(C)=O)n5)[C@@]4(C)CC[C@@H]32)C1`, the TGI in the assay on BT-549 breast was determined as 25.8 µM; in the assay with HOP-62 NSCLC it was 21.2 µM; in the assay on K-562 leukemia, 12.5 µM; in the assay with M14 melanoma, 22.1 µM; in the assay on NCI/ADR-RES ovarian, 24 µM; in the assay on OVCAR-5 ovarian it was 22.1 µM. For the same compound, the TGI with SF-539 CNS amounted to 21.9 µM; with SN12C renal it was 20.8 µM; with SNB-19 CNS, 24 µM; with UACC-62 melanoma it was 24.5 µM.
By GI50 is commonly meant the concentration that inhibits growth by half. Turning to `CCCNNC(=O)/C=C/c1ccc(CNCCc2c(C)[nH]c3ccccc23)cc1`, the GI50 with BT-549 breast is 0.28 µM; in the assay on HOP-62 NSCLC, 0.031 µM; in the assay on K-562 leukemia it was 0.0111 µM; in the assay on M14 melanoma, 0.023 µM; with NCI/ADR-RES ovarian, 0.169 µM; in the assay with OVCAR-5 ovarian, 0.0116 µM. The GI50 in the assay on SF-539 CNS was 0.0435 µM; in the assay with SN12C renal, 0.0634 µM; in the assay on SNB-19 CNS, 0.0768 µM; in the assay with UACC-62 melanoma, 0.0237 µM. Moreover, the TGI in the assay on BT-549 breast was 4.71 µM; in the assay on HOP-62 NSCLC, 0.785 µM; with K-562 leukemia it was 3.78 µM; in the assay with M14 melanoma, 1.94 µM; in the assay on NCI/ADR-RES ovarian, 2.29 µM; in the assay on OVCAR-5 ovarian, 0.191 µM. Besides, the TGI in the assay with SF-539 CNS amounted to 3.78 µM; in the assay with SN12C renal it was 3.76 µM; in the assay on SNB-19 CNS, 2.1 µM; with UACC-62 melanoma, 0.0744 µM.
In the case of `FC(F)c1nc2ccccc2n1-c1nc(N2CCOCC2)nc(N2CCOCC2)n1`, the GI50 with BT-549 breast is 0.0992 µM and 0.145 µM; in the assay on HOP-62 NSCLC, 0.495 µM and 1.1 µM; in the assay on K-562 leukemia, 4.09 µM and 5.15 µM; with M14 melanoma it was 0.566 µM and 0.464 µM; in the assay on NCI/ADR-RES ovarian, 0.457 µM and 0.496 µM; with OVCAR-5 ovarian, 0.329 µM and 0.447 µM. The GI50 with SF-539 CNS was 0.382 µM and 0.457 µM; in the assay on SN12C renal it was 0.247 µM and 0.332 µM; in the assay with SNB-19 CNS, 1.28 µM and 1.74 µM; in the assay on UACC-62 melanoma, 0.0752 µM and 0.233 µM. The TGI in the assay on BT-549 breast is 1.26 µM and 3.97 µM; in the assay on HOP-62 NSCLC, 5.36 µM and 15.7 µM; in the assay with K-562 leukemia, greater than 100 µM; in the assay with NCI/ADR-RES ovarian, greater than 100 µM; in the assay on OVCAR-5 ovarian it was greater than 100 µM; in the assay with SF-539 CNS, 2.29 µM and 3.52 µM. Moreover, the TGI is greater than 100 µM in the assay on SN12C renal; greater than 100 µM in the assay on SNB-19 CNS; 0.86 µM and 1.94 µM with UACC-62 melanoma.
For `Cc1sc2nc(-c3ccncc3)c(/C=N/N=C(N)N)n2c1C`, the GI50 in the assay with BT-549 breast is 73.5 µM; in the assay on HOP-62 NSCLC, 33.9 µM; in the assay with K-562 leukemia, 34.7 µM; with M14 melanoma it was 60.2 µM; in the assay on NCI/ADR-RES ovarian it was greater than 100 µM; in the assay on OVCAR-5 ovarian, 74.6 µM. Besides, the GI50 was 51.9 µM in the assay with SF-539 CNS, 16.9 µM with SN12C renal, 36.3 µM in the assay on SNB-19 CNS and 17.3 µM in the assay with UACC-62 melanoma. The TGI in the assay on BT-549 breast, in the assay with HOP-62 NSCLC, in the assay on K-562 leukemia, in the assay with M14 melanoma, in the assay on NCI/ADR-RES ovarian and in the assay with OVCAR-5 ovarian was greater than 100 µM in each case. Further, the TGI was greater than 100 µM with SF-539 CNS, 51.6 µM in the assay with SN12C renal, greater than 100 µM with SNB-19 CNS and 50.3 µM with UACC-62 melanoma.
On to `CCOC(=O)c1sc(-c2ccc(OS(=O)(=O)c3ccc(Br)s3)c(C=O)c2)nc1C`, for which the GI50 in the assay with BT-549 breast is 2.51 µM; in the assay on HOP-62 NSCLC, 3.3 µM; in the assay on K-562 leukemia it was 3.17 µM; with M14 melanoma, 3.22 µM; with NCI/ADR-RES ovarian it was 2.96 µM; with OVCAR-5 ovarian, 10 µM. In addition, the GI50 in the assay with SF-539 CNS was 2.43 µM; in the assay on SN12C renal, 3.09 µM; with SNB-19 CNS, 3.17 µM; in the assay on UACC-62 melanoma it was 2.21 µM. Further, the TGI with BT-549 breast is 6.57 µM; in the assay with HOP-62 NSCLC, 12.5 µM; with K-562 leukemia it was greater than 100 µM; in the assay with M14 melanoma, 11.3 µM; with NCI/ADR-RES ovarian, 12.9 µM; in the assay with OVCAR-5 ovarian, 26.3 µM. The total growth inhibition concentration (TGI) is 6.16 µM with SF-539 CNS, 10.7 µM in the assay with SN12C renal, 12 µM in the assay with SNB-19 CNS and 5.97 µM in the assay with UACC-62 melanoma.
Consider `COc1cccc(-c2nc3sccn3c2-c2ccnc(NCCCNS(=O)(=O)c3cccc(F)c3)c2)c1`, for which the GI50 is 2.39 µM in the assay with BT-549 breast; 2.83 µM in the assay with HOP-62 NSCLC; 1.77 µM in the assay on K-562 leukemia; 2.35 µM in the assay with M14 melanoma; 2.09 µM in the assay with NCI/ADR-RES ovarian; 4.41 µM in the assay with OVCAR-5 ovarian. Besides, the GI50 in the assay with SF-539 CNS is 3.87 µM; in the assay on SN12C renal, 2.94 µM; in the assay with SNB-19 CNS it was 5.6 µM; with UACC-62 melanoma it was 1.62 µM. The TGI is 7.05 µM with BT-549 breast; 29.1 µM in the assay on HOP-62 NSCLC; greater than 100 µM in the assay with K-562 leukemia; 6.05 µM in the assay on M14 melanoma; 6.41 µM with NCI/ADR-RES ovarian; greater than 100 µM in the assay with OVCAR-5 ovarian. The TGI with SF-539 CNS was greater than 100 µM; in the assay on SN12C renal, greater than 100 µM; in the assay on SNB-19 CNS, greater than 100 µM; in the assay with UACC-62 melanoma it was 5 µM.
For the compound `C=C(c1ccc2nc(NC(=O)OC)[nH]c2c1)c1cccs1`, the TGI in the assay with BT-549 breast was greater than 100 µM; in the assay on HOP-62 NSCLC, greater than 77.4 µM; with K-562 leukemia, greater than 35.5 µM; in the assay with M14 melanoma it was greater than 100 µM; with NCI/ADR-RES ovarian it was 0.87 µM; in the assay on OVCAR-5 ovarian, greater than 100 µM. Further, the total growth inhibition concentration (TGI) in the assay with SF-539 CNS is 0.523 µM; in the assay with SN12C renal, greater than 100 µM; in the assay with SNB-19 CNS, greater than 100 µM; in the assay on UACC-62 melanoma, greater than 100 µM.

(Values after PubChem BioAssay (NCI).)
